Assay results taken from PubChem BioAssay AID2060490 (Molecular Pharmacology Branch, DTP, NCI, 2025).
pIC50: −log10 of the molar value.

Tested on: 885512-296-R-J2-PDC complex spheroid viability
Test: Anticancer human tumor 885512-296-R-J2-PDC patient-derived breast carcinoma cell line growth inhibition [GQUAD]
Conditions: for pIC50: curve of first compound; for viability, T/C: stronger effect = lower value; active = viability on the fitted dose curve at most 10% of control; inactive = the rest
Outline: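 Multi-cell-type spheroids of tumor cells with HUVEC and mesenchymal stem cells, treated with drug combinations. Concentrations descend in half-log steps from near clinical Cmax, or from 10 microM where Cmax is unknown; viability read-out.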

[1] = second compound 0.0316 µM, first compound 0.0316 µM
[2] = second compound 0.0316 µM, first compound 0.1 µM
[3] = second compound 0.0316 µM, first compound 0.316 µM
[4] = second compound 0.0316 µM, first compound 1 µM
[5] = second compound 0.0316 µM, first compound 3.16 µM
[6] = second compound 0.0316 µM, first compound 10 µM
[7] = second compound 0.1 µM, first compound 0.0316 µM
[8] = second compound 0.1 µM, first compound 0.1 µM
[9] = second compound 0.1 µM, first compound 0.316 µM
[10] = second compound 0.1 µM, first compound 1 µM
[11] = second compound 0.1 µM, first compound 3.16 µM
[12] = second compound 0.1 µM, first compound 10 µM
[13] = second compound 0.316 µM, first compound 0.0316 µM
[14] = second compound 0.316 µM, first compound 0.1 µM
[15] = second compound 0.316 µM, first compound 0.316 µM
[16] = second compound 0.316 µM, first compound 1 µM
[17] = second compound 0.316 µM, first compound 3.16 µM
[18] = second compound 0.316 µM, first compound 10 µM
[19] = second compound 1 µM, first compound 0.0316 µM
[20] = second compound 1 µM, first compound 0.1 µM
[21] = second compound 1 µM, first compound 0.316 µM
[22] = second compound 1 µM, first compound 1 µM
[23] = second compound 1 µM, first compound 3.16 µM
[24] = second compound 1 µM, first compound 10 µM
[25] = second compound 3.16 µM, first compound 0.0316 µM
[26] = second compound 3.16 µM, first compound 0.1 µM
[27] = second compound 3.16 µM, first compound 0.316 µM
[28] = second compound 3.16 µM, first compound 1 µM
[29] = second compound 3.16 µM, first compound 3.16 µM
[30] = second compound 3.16 µM, first compound 10 µM
[31] = second compound 10 µM, first compound 0.0316 µM
[32] = second compound 10 µM, first compound 0.1 µM
[33] = second compound 10 µM, first compound 0.316 µM
[34] = second compound 10 µM, first compound 1 µM
[35] = second compound 10 µM, first compound 3.16 µM
[36] = second compound 10 µM, first compound 10 µM
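Also: spheroids exposed to the compounds for one week.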
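For viability, T/C in this document: percent of tumor spheroid viability relative to DMSO vehicle control wells.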

C#Cc1c(F)ccc2cc(O)cc(-c3ncc4c(N5CC6CCC(C5)N6)nc(OCC56CCCN5CC(F)C6)nc4c3F)c12 (stereo not given) + CN(C)c1ccc(Nc2c3ccc(NC(=O)CCN4CCCC4)cc3nc3cc(NC(=O)CCN4CCCC4)ccc23)cc1
< 5.00: pIC50 (second compound 0.0316 µM) | pIC50 (second compound 0.1 µM) | pIC50 (second compound 0.316 µM) | pIC50 (second compound 1 µM)
active: viability, T/C [35] 13.9% | viability, T/C [36] 1.6%
inactive: viability, T/C [1] 108% | viability, T/C [2] 95.7% | viability, T/C [3] 105% | viability, T/C [4] 96.8% | viability, T/C [5] 106% | viability, T/C [6] 87.6% | viability, T/C [7] 110% | viability, T/C [8] 86.5% | viability, T/C [9] 99.8% | viability, T/C [10] 98.4% | viability, T/C [11] 89% | viability, T/C [12] 85.4% | viability, T/C [13] 105% | viability, T/C [14] 99.3% | viability, T/C [15] 96.6% | viability, T/C [16] 89.2% | viability, T/C [17] 91.4% | viability, T/C [18] 87.5% | viability, T/C [19] 88.9% | viability, T/C [20] 97.7% | viability, T/C [21] 99% | viability, T/C [22] 102% | viability, T/C [23] 94.5% | viability, T/C [24] 104% | viability, T/C [25] 95.3% | viability, T/C [26] 106% | viability, T/C [27] 97.2% | viability, T/C [28] 89.4% | viability, T/C [29] 86.1% | viability, T/C [30] 41.2% | viability, T/C [31] 21.5% | viability, T/C [32] 15.8% | viability, T/C [33] 18.9% | viability, T/C [34] 13.7%
> 7.50: pIC50 (second compound 10 µM)
5.10: pIC50 (second compound 3.16 µM)

CC(=O)O[C@H]1C(=O)[C@@]2(C)[C@H]([C@H](OC(=O)c3ccccc3)[C@]3(O)C[C@H](OC(=O)[C@H](O)[C@@H](NC(=O)c4ccccc4)c4ccccc4)C(C)=C1C3(C)C)[C@]1(OC(C)=O)CO[C@@H]1C[C@@H]2O + CN(C)c1ccc(Nc2c3ccc(NC(=O)CCN4CCCC4)cc3nc3cc(NC(=O)CCN4CCCC4)ccc23)cc1
active: viability, T/C [1] 7.7% | viability, T/C [2] 3.78% | viability, T/C [3] 3.71% | viability, T/C [4] 2.86% | viability, T/C [5] 3.18% | viability, T/C [6] 3.65% | viability, T/C [7] 6.67% | viability, T/C [8] 3.1% | viability, T/C [9] 3.16% | viability, T/C [10] 4.15% | viability, T/C [11] 3.73% | viability, T/C [12] 3.82% | viability, T/C [13] 8.31% | viability, T/C [14] 4.86% | viability, T/C [15] 3.98% | viability, T/C [16] 3.68% | viability, T/C [17] 3.77% | viability, T/C [18] 3.72% | viability, T/C [20] 4.09% | viability, T/C [21] 3.56% | viability, T/C [22] 3.3% | viability, T/C [23] 3.31% | viability, T/C [24] 3.95% | viability, T/C [25] 5.71% | viability, T/C [26] 3.67% | viability, T/C [27] 3.71% | viability, T/C [28] 3.88% | viability, T/C [29] 5.32% | viability, T/C [30] 5.08% | viability, T/C [31] 6.02% | viability, T/C [32] 4.19% | viability, T/C [33] 2.67% | viability, T/C [34] 4.93% | viability, T/C [35] 3.01% | viability, T/C [36] 3.27%
inactive: viability, T/C [19] 10.4%
> 7.50: pIC50 (second compound 0.0316 µM) | pIC50 (second compound 0.1 µM) | pIC50 (second compound 0.316 µM) | pIC50 (second compound 1 µM) | pIC50 (second compound 3.16 µM) | pIC50 (second compound 10 µM)

CCCS(=O)(=O)Nc1ccc(F)c(C(=O)c2c[nH]c3ncc(-c4ccc(Cl)cc4)cc23)c1F + CN(C)c1ccc(Nc2c3ccc(NC(=O)CCN4CCCC4)cc3nc3cc(NC(=O)CCN4CCCC4)ccc23)cc1
5.09: pIC50 (second compound 0.0316 µM)
inactive: viability, T/C [1] 105% | viability, T/C [2] 90% | viability, T/C [3] 109% | viability, T/C [4] 104% | viability, T/C [5] 106% | viability, T/C [6] 38.9% | viability, T/C [7] 101% | viability, T/C [8] 119% | viability, T/C [9] 124% | viability, T/C [10] 117% | viability, T/C [11] 89% | viability, T/C [12] 39.8% | viability, T/C [13] 118% | viability, T/C [14] 102% | viability, T/C [15] 111% | viability, T/C [16] 104% | viability, T/C [17] 104% | viability, T/C [18] 40.7% | viability, T/C [19] 95% | viability, T/C [20] 102% | viability, T/C [21] 103% | viability, T/C [22] 94.1% | viability, T/C [23] 119% | viability, T/C [24] 21.9% | viability, T/C [25] 117% | viability, T/C [26] 104% | viability, T/C [27] 126% | viability, T/C [28] 111% | viability, T/C [29] 57.6% | viability, T/C [31] 17.6% | viability, T/C [32] 16.4% | viability, T/C [33] 15.7% | viability, T/C [34] 14.2%
> 7.50: pIC50 (second compound 10 µM)
5.10: pIC50 (second compound 0.1 µM)
active: viability, T/C [30] 6.03% | viability, T/C [35] 8.35% | viability, T/C [36] 1.3%
5.07: pIC50 (second compound 0.316 µM)
5.43: pIC50 (second compound 3.16 µM)
5.17: pIC50 (second compound 1 µM)

COc1cccc2c1C(=O)c1c(O)c3c(c(O)c1C2=O)CC(O)(C(=O)CO)CC3OC1CC(N)C(O)C(C)O1 (stereo not given) + CN(C)c1ccc(Nc2c3ccc(NC(=O)CCN4CCCC4)cc3nc3cc(NC(=O)CCN4CCCC4)ccc23)cc1
7.15: pIC50 (second compound 3.16 µM)
7.16: pIC50 (second compound 0.0316 µM)
active: viability, T/C [4] 6.89% | viability, T/C [5] 0.38% | viability, T/C [6] 3.01% | viability, T/C [10] 8.24% | viability, T/C [11] 1.04% | viability, T/C [12] 2.8% | viability, T/C [16] 7.15% | viability, T/C [17] 1.27% | viability, T/C [18] 3.37% | viability, T/C [22] 8.92% | viability, T/C [23] 0.75% | viability, T/C [24] 3.6% | viability, T/C [28] 8.3% | viability, T/C [29] 3.01% | viability, T/C [30] 2.07% | viability, T/C [34] 5.9% | viability, T/C [35] 0.9% | viability, T/C [36] 1.52%
7.12: pIC50 (second compound 1 µM)
inactive: viability, T/C [1] 83.5% | viability, T/C [2] 29.8% | viability, T/C [3] 23.5% | viability, T/C [7] 90.9% | viability, T/C [8] 31.5% | viability, T/C [9] 18.5% | viability, T/C [13] 95.3% | viability, T/C [14] 35.2% | viability, T/C [15] 20.9% | viability, T/C [19] 95% | viability, T/C [20] 30% | viability, T/C [21] 26.1% | viability, T/C [25] 81.5% | viability, T/C [26] 34.8% | viability, T/C [27] 18.1% | viability, T/C [31] 26.5% | viability, T/C [32] 20% | viability, T/C [33] 9.35%
7.14: pIC50 (second compound 0.1 µM)
> 7.50: pIC50 (second compound 10 µM)
7.10: pIC50 (second compound 0.316 µM)

O=c1[nH]cc(F)c(=O)[nH]1 + CN(C)c1ccc(Nc2c3ccc(NC(=O)CCN4CCCC4)cc3nc3cc(NC(=O)CCN4CCCC4)ccc23)cc1
> 7.50: pIC50 (second compound 10 µM)
inactive: viability, T/C [1] 100% | viability, T/C [2] 92.7% | viability, T/C [3] 91.6% | viability, T/C [4] 98.8% | viability, T/C [5] 58.7% | viability, T/C [6] 64.3% | viability, T/C [7] 101% | viability, T/C [8] 108% | viability, T/C [9] 117% | viability, T/C [10] 96.4% | viability, T/C [11] 59.5% | viability, T/C [12] 60.1% | viability, T/C [13] 105% | viability, T/C [14] 98.7% | viability, T/C [15] 120% | viability, T/C [16] 102% | viability, T/C [17] 62.3% | viability, T/C [18] 60% | viability, T/C [19] 96.4% | viability, T/C [20] 102% | viability, T/C [21] 97.5% | viability, T/C [22] 84% | viability, T/C [23] 55.8% | viability, T/C [24] 58.4% | viability, T/C [25] 90.9% | viability, T/C [26] 96.9% | viability, T/C [27] 104% | viability, T/C [28] 77.9% | viability, T/C [29] 64.3% | viability, T/C [30] 59.1% | viability, T/C [31] 24.8% | viability, T/C [32] 20.1% | viability, T/C [33] 19.2% | viability, T/C [34] 25.5% | viability, T/C [35] 23.2% | viability, T/C [36] 18%
< 5.00: pIC50 (second compound 0.0316 µM) | pIC50 (second compound 0.1 µM) | pIC50 (second compound 0.316 µM) | pIC50 (second compound 1 µM) | pIC50 (second compound 3.16 µM)
